Consider 29 molecules from patent US20110034466A1, “NOVEL FIVE-MEMBERED RING COMPOUND” (priority 2008, published 2011).

In one data set the test system is rat lung membrane SMBS. Kind of data set: Receptor-binding assessment test using rat lung membranes ([125I]-iodocyanopindolol ligand binding assay). The note with it: 1 μM test compound; ratio of inhibiting specific binding of [125I]-iodocyanopindolol to rat lung membrane SMBS. How it is done:
Receptor-Binding Assessment Test of Compounds Using Rat Lung Membranes
The assessment test was carried out according to the method of Sugasawa, T. et al., J. Biol. Chem., 272, 21244-21252 (1997).
Preparation of Rat Lung Membranes
Lung taken out from SD male rat (7-week old under test, Charles River Laboratories Japan, Inc.) was removed trachea and blood vessels to shred and washed with iced tris-saline buffer (10 mM tris hydrochloric acid-154 mM sodium chloride, pH7.4). The resultant was homogenized by Hiscotron with ice-cold tris-saline buffer containing a homogenization buffer (1 mM ethylenediaminetetraacetic acid (EDTA), 1 mM 4-(2-aminoethyl)benzenesulfonyl fluoride (AEBSF), 5 μg/ml aprotinin, 5 μg/ml leupeptine) (maximum rate: 1 minute). The supernatant after low-speed centrifugation (1500×g, 20 minutes, 4° C.) was ultracentrifuged (100000×g, 20 minutes, 4° C.), and the pellet was suspended in tris-saline buffer to store at −80° C. The protein concentrations were determined by Bio-Rad Protein Assay Kit using bovine serum albumin (BSA) as a standard.
To each well in protein-nonabsorptive round-bottom 96-well assay plate (commercially available from Iwaki Glass Co., Ltd.) were added tris-saline buffer (200 μl) containing 1 nM [^125I]-iodocyanopindolol (commercially available from Amersham plc), 10 μM serotonine, 20 μm dl-propranolol, 10 μM phentolamine, 1.1 mM ascorbic acid and 100 μg lung membrane, and the mixture was pipetted to combine and then incubated at 37° C. for 30 minutes. The test compounds were dissolved in 100% dimethyl sulfoxide solution, and thereto was added 2 μl (final DMSO concentration: 1%). In order to calculate nonspecific binding amounts, to the mixture was added L-threo-3-(3,4-dihydroxyphenyl)-N-[3-(4-fluorophenyl)propyl]serine pyrrolidine amide at 100 μM of the final concentration as an alternative to the test compounds. During this time, 100 μl of 0.3% polyethyleneimine (PEI)/tris-saline buffer was added to MultiScreen plate (96-well B glass fiber, Millipore Cat. No. MAFB NOB10), and incubated for over 30 minutes. The resultant was filtered with aspiration (aspiration by the addition of 200 μl iced tris-saline buffer) to wash, and the reaction solutions on 96-well assay plate were filtered with aspiration to wash four times on MultiScreen plate. B glass fiber filter paper at the bottom of MultiScreen plate was punched out, and γ-ray doses of [^125I]-iodocyanopindolol trapped on the filter paper were determined as binding amounts. The binding amounts in the presence of DMSO (final concentration: 1%) were total binding amounts, and the binding amounts in the presence of 100 μM L-threo-3-(3,4-dihydroxyphenyl)-N-[3-(4-fluorophenyl)propyl]serine pyrrolidine amide were nonspecific binding amounts. The values subtracted the nonspecific binding amounts from the total binding amounts were the specific binding amounts. The binding activity of a compound was calculated according to the following formula, which was shown in the ratio of inhibiting the specific binding of [^125I]-iodocyanopindolol to rat lung membrane SMBS by the test compound.

Data set [1] has as its system Corticosterone generation. Kind of data set: Assessment test of steroid hormone synthesis inhibition (Corticosterone generation in rat adrenal gland cells). The note with it: 10 μM test article, rat adrenal cells with cAMP, 2 hours, read-out: Steroid Synthesis Inhibition Rate (%) (10 μM). Type of data set: cell-based. The text has this: Assessment Test of Steroid Hormone Synthesis Inhibition
• Cell Strainer (BD Falcon®) • Cell Titer-Glo® (Promega) • Collagenase from Clostridium histolyticum (Sigma-Aldrich) • Corticosterone EIA kit (Cayman) • Dimethylsulfoxide (referred to as DMSO hereinafter) (nacalai tesque) • D-MEM (GIBCO) • DNase I (Invitrogen) • Fetal Bovine Serums (referred to as FBS hereinafter) (Bioflud) • Multiple well plates for adhesive cell culture, 96 wells (IWAKI) • N^6,2′-O-Dibutyryladenosine 3′,5′-cyclic monophosphate sodium salt (referred to as cAMP hereinafter) (Sigma) • Penicillin Streptomycin Mixed Solution (nacalai tesque)
Control examples 1 to 4: Control example 1 was Example 350 of Patent Document 2. Control examples 2 to 4 were synthesized according to Patent Document 2.
Adrenal glands were taken out from rats, and removed excess connective tissues, adiposes and membranes in D-MEM. The adrenal glands were transferred to polytubes, and quickly segmentalized with scissors. Thereto was added D-MEM containing 1 mg/mL collagenase and 0.25 μL DNase 1, and then the mixture was shaken at 37° C. for 10 minutes in 80 times/minute. Then, the mixture was pipetted by 1 mL truncated pipette tip, and shaken again under the same condition. After 10 minutes, the mixture was pipetted again by 1 mL pipette tip, and the cell suspension was filtered through metal mesh. The filtrate was centrifuged at 4° C. for 5 minutes in 500 g. The supernatant was removed, and thereto was added a mixed solution of 0.16 M NH4Cl and 0.17 M Tris-HCl in 3 mL. The mixture was let stand on ice for 5 minutes, and then centrifuged under the same condition. Then, the supernatant was removed and then thereto was added D-MEM. The cell suspension was prepared and centrifuged under the same condition. Again, the supernatant was removed and then thereto was added D-MEM to give a cell suspension. The cell suspension was filtered by Cell Strainer (BD Falcon®). The filtrate was centrifuged under the same condition. After the completion of the centrifugation, the supernatant was removed, and thereto was added D-MEM containing 1% Penicillin Streptomycin Mixed Solution and 10% FBS. The mixture was seeded in Multiple well plate for adhesive cell culture, 96 wells (IWAKI) in 10000 cells/well, and incubated at 37° C. overnight in CO2 incubator.
Test article concentrations were prepared in DMSO to 2000 μM, and D-MEM containing 20 μM test article in D-MEM was prepared.
Cell-seeded plate was incubated overnight, and then the medium was removed and thereto was added D-MEM containing 20 μM test article in 50 μL/well. Then, to the mixture was promptly added D-MEM containing 20 μM cAMP in 50 μL/well so that the final concentration of the test article was 10 μM. After the addition of 2 types of D-MEM, the mixture was incubated at 37° C. for 2 hours in CO2 incubator. After 2 hours, the supernatant (50 μL) of the medium was collected. For cells, the cell toxicity of the test article was assessed according to a conventional method using Cell Titer-Glo® (Promega). For the collected supernatant, the Corticosterone concentration in the supernatant was determined according to a conventional method using Corticosterone EIA kit (Cayman).
The inhibition rate of 10 μM test article to Corticosterone generation was calculated according to the following formula confirming that the cell toxicity by the test article was not recognized.

As usually defined, the inhibition is how much of the control response was suppressed. The term melting point denotes the temperature, or range, at which the solid turns liquid.

Consider `CNC(=O)NCCn1c(-c2ccc(CN3CCOCC3)cc2C)cs/c1=N\c1ccc(F)c(C)c1` [Example 18, N-{2-[(2Z)-2-[(4-Fluoro-3-methylphenyl)imino]-4-[2-methyl-4-(morpholin-4-ylmethyl)phenyl]-1,3-thiazol-3(2H)-yl]ethyl}-N′-methylurea], for which the “Binding Activity (%) (1 μM)” value in the data set on rat lung membrane SMBS is reported as 88%. The inhibition at 10 µM in data set [1] worked out at 28%.
The molecule `CNC(=O)NCCn1c(-c2ccc(CN3CCOCC3)cc2OC)cs/c1=N\c1cccc(F)c1F` [Example 30] registered a melting point of 161 to 165 °C.
Still for that read-out and setting: under `CNC(=O)NCCn1c(-c2ccc(CN3CCOCC3)cc2OC)cs/c1=N\c1ccc(C)c(F)c1` [Example 29] stands 144 to 150 °C; under `CCNC(=O)NCCn1c(-c2ccc(C(=O)N3CCOCC3)cc2)cs/c1=N\c1cccc(F)c1` [Example 57], 172 to 177 °C; under `CNC(=O)NCCn1c(-c2ccc(CN3CCOCC3)c(C)c2)cs/c1=N\c1cccc(F)c1` [Example 27], 151 to 152 °C.
In turn, `CCNC(=O)c1ccc(-c2cs/c(=N\c3ccc(F)cc3)n2CCNC(=O)NC)cc1` [Example 61] had a melting point of 172 to 178 °C. Also, the “Binding Activity (%) (1 μM)” value in the data set with rat lung membrane SMBS was 62%. Further, in data set [1], the inhibition at 10 µM was found to be 6%.
Molecule `CNC(=O)NCCn1c(-c2ccc(CN3CCOCC3)c(OC)c2)cs/c1=N\c1cccc(F)c1F` [Example 32] had a melting point of 150 to 153 °C.
Still for that read-out and setting: under `CNC(=O)NCCn1c(-c2ccc(CN3CCOCC3)cc2C)cs/c1=N\c1ccc(F)cc1F` [Example 25] stands 154 to 160 °C.
Still for that read-out and setting: under `CNC(=O)NCCn1c(-c2ccc(CN3CCOCC3)cc2C)cs/c1=N\c1ccc(F)cc1C` [Example 24] stands 122 to 125 °C.
Same read-out and setting: under `CCNC(=O)NCCn1c(-c2ccc(C(=O)N3CCOCC3)cc2)cs/c1=N\c1ccc(C)c(F)c1` [Example 55] stands 175 to 178 °C.
In turn, `CNC(=O)NCCn1c(-c2ccc(CN3CCOCC3)cc2C)cs/c1=N\c1ccc(C)c(F)c1` [Example 22] gave a melting point of 171 to 174 °C.
Molecule `CCNC(=O)NCCn1c(-c2ccc(C(=O)N3CCOCC3)cc2)cs/c1=N\c1ccc(F)cc1F` [Example 54] came in with a melting point of 179 to 180 °C.
Take `CCNC(=O)c1ccc(-c2cs/c(=N\c3cccc(F)c3)n2CCNC(=O)NC)cc1` [Example 60]: the melting point lay in the range of 170 to 176 °C.
On the same count and under the same terms, the figure for `CNC(=O)NCCn1c(-c2ccc(CN3CCOCC3)cc2C)cs/c1=N\c1cccc(F)c1` [Example 23] is 119 to 121 °C; for `CNC(=O)NCCn1c(-c2ccc(CN3CCOCC3)c(OC)c2)cs/c1=N\c1ccc(F)cc1F` [Example 33] it is 164 to 169 °C.
For the molecule `CCNC(=O)c1ccc(-c2cs/c(=N\c3cccc(Cl)c3)n2CCNC(=O)NC)cc1` [Example 63], the melting point was 185 to 192 °C.
Regarding `CNC(=O)NCCn1c(-c2ccc(CN3CCOCC3)c(OC)c2)cs/c1=N\c1cccc(F)c1` [Example 31], the melting point is 170 to 174 °C.
As for `CCNC(=O)NCCn1c(-c2ccc(C(=O)N3CCOCC3)cc2)cs/c1=N\c1cccc(Cl)c1` [Example 59], the melting point is 191 to 198 °C. In addition, the “Binding Activity (%) (1 μM)” value with rat lung membrane SMBS was 66%. For the same molecule, in data set [1], the inhibition at 10 µM came out at 7%.
For the molecule `CNC(=O)NCCn1c(-c2ccc(CN3CCOCC3)c(OC)c2)cs/c1=N\c1ccc(F)c(C)c1` [Example 21, N-{2-[(2Z)-2-[(4-Fluoro-3-methylphenyl)imino]-4-[3-methoxy-4-(morpholin-4-ylmethyl)phenyl]-1,3-thiazol-3(2H)-yl]ethyl}-N′-methylurea], the “Binding Activity (%) (1 μM)” value in the data set on rat lung membrane SMBS is given as 82%. Also, in data set [1], the inhibition at 10 µM was found to be 8%.
`CCNC(=O)NCCn1c(-c2ccc(C(=O)N3CCOCC3)cc2)cs/c1=N\c1ccc(F)c(C)c1` [Example 58] displayed a melting point of 196 to 203 °C.
On to `CNC(=O)NCCn1c(-c2ccc(CCN3CCOCC3)cc2)cs/c1=N\c1cccc(F)c1F` [Example 46], for which the melting point lay in the range of 155 to 164 °C.
The same measure, in the same setting: under `CNC(=O)NCCn1c(-c2ccc(CN3CCOCC3)cc2OC)cs/c1=N\c1cccc(F)c1` [Example 28] stands 163 to 166 °C; under `CCNC(=O)NCCn1c(-c2ccc(C(=O)N3CCOCC3)cc2)cs/c1=N\c1cccc(Cl)c1` [Example 56], 182 to 186 °C; under `CNC(=O)NCCn1c(-c2ccc(C(=O)NC3CC3)cc2)cs/c1=N\c1cccc(F)c1` [Example 64], 179 to 185 °C.
`CNC(=O)NCCn1c(-c2ccc(CCN3CCOCC3)cc2)cs/c1=N\c1ccc(F)cc1F` [Example 47]: the melting point fell in the range of 166 to 172 °C.
Molecule `CCNC(=O)c1ccc(-c2cs/c(=N\c3ccc(F)c(F)c3)n2CCNC(=O)NC)cc1` [Example 62] registered a melting point of 180 to 188 °C. For the same molecule, the “Binding Activity (%) (1 μM)” value in the data set on rat lung membrane SMBS was 65%. Besides, the inhibition at 10 µM in data set [1] amounted to 2%.
In the case of `CCNC(=O)NCCn1c(-c2ccc(C(=O)N3CCOCC3)cc2)cs/c1=N\c1ccc(F)c(C)c1` [Example 53], the melting point fell in the range of 183 to 186 °C.
For the molecule `CNC(=O)NCCn1c(-c2ccc(CN3CCOCC3)cc2C)cs/c1=N\c1cccc(F)c1F` [Example 26], the melting point was in the range of 132 to 135 °C.
As for `CNC(=O)NCCn1c(-c2ccc(CCN3CCOCC3)cc2)cs/c1=N\c1cccc(F)c1` [Example 45], the melting point fell in the range of 154 to 160 °C.
